{"source": "patent US6348445B1", "about": "“Biologically active peptides with reduced toxicity in animals and a method for preparing same” (priority 1992, dated 2002)", "tested_on": "E. coli ATCC strain 25922", "assay": "Minimal Inhibitory Concentration, microtiter broth dilution", "assay_type": "cell-based", "details": "ATCC strain 25922", "in_short": "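Broth microdilution per NCCLS M7-T2: final peptide levels 0.25 to 256 μg/ml (twofold steps), inoculum 1-5×10^5 CFUs/ml in full-strength Mueller Hinton broth. MIC read as lowest concentration leaving the well clear after 16-20 hours at 37° C.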", "note": "Where no end group is shown, it is not given here.", "data": [{"sequence": "GIGKFLKKAKKFGKAFVKILKK [MSI-344]", "values": [{"measurement": "MIC E. coli ATCC 25922", "value": 8, "unit": "µg/mL"}]}]}
